According to patent US6908919B2, “Substituted polycyclic aryl and heteroaryl pyrazinones useful for selective inhibition of the coagulation cascade” (Pharmacia Corporation, priority 1999, dated 2005):

Target: Human factor Xa (Homo sapiens, UniProt P00742)
Experiment: Xa Assay
Assay type: biochemical
Parameters: purchased Enzyme Research Laboratories, South Bend Ind

Sequence of Human factor Xa (P00742 41-179 limits assumed): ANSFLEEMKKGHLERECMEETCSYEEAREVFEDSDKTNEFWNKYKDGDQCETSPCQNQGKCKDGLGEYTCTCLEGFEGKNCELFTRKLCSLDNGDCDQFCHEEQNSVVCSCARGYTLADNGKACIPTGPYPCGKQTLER
Sequence of Human factor Xa (P00742 235-488 limits assumed): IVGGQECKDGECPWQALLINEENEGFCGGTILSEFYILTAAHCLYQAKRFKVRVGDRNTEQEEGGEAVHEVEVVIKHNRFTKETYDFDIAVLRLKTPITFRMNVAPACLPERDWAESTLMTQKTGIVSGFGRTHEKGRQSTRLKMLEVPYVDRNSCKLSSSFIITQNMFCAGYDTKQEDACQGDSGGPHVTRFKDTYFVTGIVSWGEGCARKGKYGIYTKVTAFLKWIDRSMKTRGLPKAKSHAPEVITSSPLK

% Inhibition Factor Xa (30 µM) (at 30 µM inhibitor) | SMILES | also measured
23% | N=C(N)c1ccc(CNC(=O)Cn2c(-c3ccccc3)c(Cl)nc(NCCc3cccnc3)c2=O)cc1 [1471-16] | 
31% | N=C(N)c1ccc(CNC(=O)Cn2c(-c3cccc(Cl)c3)c(Cl)nc(NCc3ccccc3)c2=O)cc1 [1471-25] | 
0% | N=C(N)c1ccc(CNC(=O)Cn2c(-c3ccsc3)c(Cl)nc(NCc3ccccc3)c2=O)cc1 [Example 1517-01] | 
4% | N=C(N)c1ccc(CNC(=O)Cn2c(-c3ccccc3)c(Cl)nc(NCCc3cccc(C(F)(F)F)c3)c2=O)cc1 [1512-41] | 
9% | N=C(N)c1ccc(CNC(=O)Cn2c(-c3ccccc3)c(Cl)nc(NCc3cc(F)ccc3F)c2=O)cc1 [1512-36] | 
4% | N=C(N)c1ccc(CNC(=O)Cn2c(-c3ccccc3)c(Cl)nc(NCc3cc(F)cc(F)c3)c2=O)cc1 [1512-39] | 
9% | N=C(N)c1ccc(CNC(=O)Cn2c(-c3ccccc3)c(Cl)nc(NCCc3ccc(Cl)c(Cl)c3)c2=O)cc1 [1507-44] | 
22% | N=C(N)c1ccc(CNC(=O)Cn2c(-c3ccc4c(c3)OCO4)c(Cl)nc(NCCc3ccccc3)c2=O)cc1 [1471-47] | 
25% | N=C(N)c1ccc(CNC(=O)Cn2c(-c3cccc(Cl)c3)c(Cl)nc(NCCc3cccnc3)c2=O)cc1 [1471-32] | 
24% | COc1ccc(-c2c(Cl)nc(NCCc3ccc(Cl)cc3)c(=O)n2CC(=O)NCc2ccc(C(=N)N)cc2)cc1 [1471-34] | 
5% | CCOc1ccccc1CNc1nc(Cl)c(-c2ccccc2)n(CC(=O)NCc2ccc(C(=N)N)cc2)c1=O [1512-11] | 

Continued, compound first:

SMILES | % Inhibition Factor Xa (30 µM) (at 30 µM inhibitor) | also measured
COc1ccc(-c2c(Cl)nc(NCCc3ccccc3)c(=O)n2CC(=O)NCCc2ccncc2)cc1 [Example E-0100] |  | % Inhibition Factor Xa (100 µM) (inhibitor at 100 µM): 6%
N=C(N)c1ccc(CNC(=O)Cn2c(-c3ccc4c(c3)OCO4)c(Cl)nc(NCc3ccncc3)c2=O)cc1 [1471-43] | 18% | 
N=C(N)c1ccc(CNC(=O)Cn2c(-c3ccccc3)c(Cl)nc(NCCN3CCOCC3)c2=O)cc1 [1471-12] | 9% | 
CC(C)Nc1nc(Cl)c(-c2ccc(Cl)nc2)n(CC(=O)NCc2ccc(C(=N)N)cc2F)c1=O [Example 74] | 13% | 
N=C(N)c1ccc(CNC(=O)Cn2c(-c3cccc(N)c3)c(Cl)nc(NC3CCC3)c2=O)c(F)c1 [1543-39] |  | % Inhibition Factor Xa (30 µM) (at 30 µM): 14%
Cc1c(Cl)nc(NCCc2ccncc2)c(=O)n1CC(=O)NCc1ccc(C(=N)N)cc1 [1471-5] | 12% | 
CCc1c(Cl)nc(NCCc2ccccc2)c(=O)n1CC(=O)NCc1ccc(C(=N)N)cc1 [1471-63] | 2% | 
N=C(N)c1ccc(CNC(=O)Cn2c(-c3cccc(N)c3)c(Cl)nc(NC3CCC3)c2=O)cc1F [Example 40] | 0% | 
CC(C)CNc1nc(Cl)c(-c2cccc(N)c2)n(CC(=O)NCc2ccc(C(=N)N)cc2F)c1=O [1543-38] |  | % Inhibition Factor Xa (30 µM) (at 30 µM): 14%
Cc1c(Cl)nc(NCCc2cccc(Cl)c2)c(=O)n1CC(=O)NCc1ccc(C(=N)N)cc1 [1471-6] | 14% | 
N=C(N)c1ccc(CNC(=O)Cn2c(-c3cccc(N)c3)c(Cl)nc(NC3CCC3)c2=O)cc1 [Example 90] | 16% @ 30 | 
N=C(N)c1ccc(CNC(=O)Cn2c(-c3ccccc3)c(Cl)nc(NC3CCS(=O)(=O)C3)c2=O)cc1 (stereo not drawn) [1512-19] | 3% | 
CC(C)Nc1nc(Cl)c(-c2cccnc2)n(CC(=O)NCc2ccc(C(=N)N)cc2)c1=O [Example 75] | 9% | 
CCc1c(Cl)nc(NCCc2ccncc2)c(=O)n1CC(=O)NCc1ccc(C(=N)N)cc1 [1471-61] | 0% | 
CC(C)Nc1nc(Cl)c(-c2cccc(C(=O)O)c2)n(CC(=O)NCc2ccc(C(=N)N)cc2)c1=O [Example 65] | 12% | 
CCCC(CCC)Nc1nc(Cl)c(-c2ccccc2)n(CC(=O)NCc2ccc(C(=N)N)cc2)c1=O [Example 1517-26] |  | % Inhibition Factor Xa (30 µM) (at 30 µM): 0%
